Laboratory results reported in patent publication US11305021B2, “Membrane-lytic block copolymers” (UNIVERSITY OF WASHINGTON, priority 2016, dated 2022).
“Also recorded” adds a separate entry of the source.

Legend:
[1] = system: HeLa, KB, A549 and Z310 cells; assay: In vitro transfection with luciferase plasmid; assay type: cell-based
Method: HeLa, KB, Z310 and A549 cells were seeded at a density of 25,000 cells/well in complete cell culture medium in a 24-well plate. Cells were firstly incubated at 37° C., 5% CO2 for 24 h. Polyplexes were prepared at different N/P ratios using 0.5 μg of pCMV-Luc2 pDNA in 10 μL total volume. Each sample was diluted to 200 μL with complete cell culture medium. The cells were rinsed once with PBS, followed by the addition of transfection solution. After incubation for 4 h, cells were washed with PBS twice and the polyplexes solution was replaced with complete cell culture medium. After additional 20 h incubation, luciferase activity was quantified with a luciferase assay kit (Promega Corp, Fitchburg, Wis.) according to the manufacturer's instruction, except that a freeze-thaw cycle at −80 OC was included after the addition of the lysis buffer to ensure complete cell lysis. Luminescence intensity was measured on the plate reader with integration for 1 s. The total protein content in each well was measured by a BCA Protein Assay Kit (Thermo Scientific, Rockford, Ill.) according to the manufacturer's instruction so that the luciferase activity was normalized to the total protein content in each well. Each sample was tested with a sample size (n)=3. The N/P ratio used for bPEI is 5, which was previous determined to show optimized transfection efficiency. […]

[2] = Assembly behavior of VIPER by TEM imaging and DLS analysis; assay type: physicochemical
Source text: To verify this hypothesized mechanism, the assembly behavior of VIPER at pH 7.4 and pH 5.7 was monitored by both transmission electron microscopy (TEM) imaging and dynamic light scattering (DLS) analysis. VIPER assembles into uniform spherical nanoparticles with diameter around 30 nm at pH 7.4 (FIGS. 2A and C for TEM and DLS, respectively).
The morphology of polymers and polyplexes under dried state were imaged on a JEOL 1140 TEM at an acceleration voltage of 100 kV. In order to observe the morphology of polymer assemblies under different pHs, the polymer solutions (1 mg/mL, in distilled water) were diluted with PB to pH 7.4 and 5.7. Then the resulting solutions (10 μL) were deposited on the top of the 400-mesh formvar/copper grids and incubated at room temperature for 30 min. After staining with uranyl acetate, the grids were allowed to air dry overnight. The preparation of polyplexes samples were the same as polymer samples.

[3] = system: HeLa, KB, A549 and Z310 cells; assay: GFP transfection; assay type: cell-based; settings: GFP plasmid
Method: The transfection with GFP (green fluorescence plasmid) on different cell lines was the same as that with luciferase plasmid. For analysis, cells were washed with PBS, trypsinized and pelleted at 300×g for 5 min at 4° C. The pellet was resuspended in 0.3 mL propidium iodide (PI) solution (1 μg/mL in 0.5% BSA in PBS), kept on ice and analyzed using flow cytometry, MACSQuant Analyzer (Miltenyi Biotec Inc., Auburn, Calif.). Intact cells were identified using the forward and side scatter data. The resulting cell population was gated into GFP+/PI+, GFP+/PI−, GFP−/PI+ and GFP−/PI− based on the green fluorescence and PI intensity from the control samples (cells transfected without the polymers but DNA only) and reported as the mean percentage of cell population that is GFP+/PI− including standard deviation (SD). All experiments were conducted in triplicate.

human red blood cells = assay: Hemolysis assay (acid-triggered membrane-lytic activity); assay type: cell-based
Method: Hemolysis assay was used to evaluate the acid-triggered membrane-lytic activity of the synthesized materials at pH 7.4 (extracellular pH) and 5.7 (endosomal pH). Briefly, plasma from human blood was removed by centrifugation. The red blood cells were washed three times with 150 mM NaCl, and resuspended into phosphate buffer (PB) at pH 7.4 or 5.7. The polymers at various concentrations ([…]) and 1% Triton X-100 as control, were added to the RBC suspensions in a 96-well conical plate and was allowed to incubate for 1 h at 37° C. After centrifugation, the released hemoglobin within the supernatant was measured by UV at 541 nm. Percent hemolysis was calculated relative to Triton X-100. Experiments were performed in triplicate.

P(OEGMA11-DMAEMA56)-b-p(DIPAMA33-PDSEMA-g-melittin)1) [VIPER]
transfection efficiency compared to optimized LF formulations ([1]; HeLa, KB and Z310 cells): improved transfection efficiency | luciferase activity compared to CP and bPEI ([1]; all tested cell lines): orders of magnitude higher | assemblies observed ([2]; pH 5.7): no assemblies were observed | diameter of nanoparticles ([2]; pH 7.4): around 30 nm | fold more transfected cells compared to CP [3]: 13- to 60 fold | fold more transfected cells compared to bPEI [3]: 11- to 46 fold | transfection efficiency, GFP+ cells ([3]; range over cell lines): 36-77% | concentration for 50% lysis (human red blood cells; pH 5.7): 30 µg/mL | concentration for complete lysis (human red blood cells; pH 5.7): 120 µg/mL | cell lysis (human red blood cells; pH 7.4, VIPER concentrations as high as 240 μg/mL): no significant cell lysis; also recorded: minimal membrane-lytic activity
